The source of these data is patent publication US20220251054A1, “Analogues and Methods of Treating Rett Syndrome” (The Regents of the University of California, priority 2019, published 2022).

“Also recorded” adds a separate entry of the source.

The subject of one experiment is Cx+GE organoids. In words: Live organoid calcium imaging (GCaMP6f) with GABAA receptor antagonist. The format is cell-based, human. As to conditions: for synchronization of calcium transients / neural activities: Cx+GE organoids, bicuculline methiodide 100 μM or gabazine 25 μM.
The next experiment relates to Cx+Cx organoids. The experiment is described as above. The conditions noted are these: for synchronization of calcium transients / neural activities: Cx+Cx organoids, bicuculline methiodide 100 μM or gabazine 25 μM. The experiment is classed as cell-based, human.
A further experiment addresses P53 (Homo sapiens, UniProt P04637). The conditions noted are these: cited from earlier work.
A further experiment relates to Mut Cx+GE organoids. In words: Extracellular recording of local field potentials (LFP) in Rett syndrome fusion organoids. The experiment is classed as cell-based, human. The conditions noted are these: for high frequency oscillations (HFOs, about 200-500 Hz) / lower frequency / gamma oscillations (about 40-80 Hz) / spiking activity / spike frequency: Mut Cx+GE organoids treated 48-hr; for high frequency oscillations (HFOs, about 200-500 Hz) / lower frequency / gamma oscillations (about 40-80 Hz): 2 mM VPA or 10 μM Pifithrin-α; for spiking activity / spike frequency: 2 mM sodium valproate (VPA) or 10 μM Pifithrin-α.

Experiment [1] relates to MECP2− (Mutant) interneurons. In words: P21 protein immunofluorescence (senescence marker) in treated neurons. The format is cell-based. The conditions noted are these: 10 μM, 48 hours, WT and Mutant interneurons.
The subject of a further experiment is Mutant IPSCs. The format is cell-based. The conditions noted are these: 10 μM, 48 hours.

P53, sequence (P04637 whole entry, the tested form may be a part): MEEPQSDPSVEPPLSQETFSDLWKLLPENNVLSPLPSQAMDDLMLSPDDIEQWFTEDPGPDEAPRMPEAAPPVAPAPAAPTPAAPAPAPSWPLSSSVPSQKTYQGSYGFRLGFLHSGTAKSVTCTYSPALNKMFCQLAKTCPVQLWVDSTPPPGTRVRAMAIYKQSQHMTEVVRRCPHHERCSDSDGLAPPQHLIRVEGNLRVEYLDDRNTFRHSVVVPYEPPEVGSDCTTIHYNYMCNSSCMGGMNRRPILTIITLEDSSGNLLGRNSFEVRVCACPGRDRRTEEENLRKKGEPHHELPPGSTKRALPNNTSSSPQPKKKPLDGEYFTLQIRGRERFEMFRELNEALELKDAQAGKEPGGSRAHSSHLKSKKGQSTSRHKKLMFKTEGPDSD

With `C[N+]1(C)CCc2cc3c(cc2[C@H]1[C@@H]1OC(=O)c2c1ccc1c2OCO1)OCO3.[I-]` [BMI, bicuculline methiodide], the “hierarchical clustering: groups of neurons with correlated activity” value in the experiment with Cx+GE organoids (Cx+GE organoids following BMI treatment) is “large groups of neurons with highly correlated activity”; in the experiment with Cx+Cx organoids (Cx+Cx organoids following BMI treatment), “only small groups”. For the same compound, the results for the “synchronization of calcium transients / neural activities” value with Cx+GE organoids and in the experiment on Cx+Cx organoids were “spontaneous synchronization of neural activities; also recorded: epochs of nearly complete synchronization of calcium transients” and “minimal effect; also recorded: no such effect”, respectively.

In the case of `COc1ccc(-c2ccc(=N)n(CCCC(=O)O)n2)cc1` [Gabazine], the “synchronization of calcium transients / neural activities” value in the experiment with Cx+GE organoids is “epochs of nearly complete synchronization of calcium transients”; in the experiment on Cx+Cx organoids, “no such effect”.

On to `Cc1ccc(C(=O)Cn2c3c(sc2=N)CCCC3)cc1` [Pifithrin α, 2-(2-imino-4,5,6,7-tetrahydrobenzo[d]thiazol-3(2H)-yl)-1-(p-tolyl)ethan-1-one hydrogen bromide], for which the P53 inhibition entry at P53 is given as “effective P53 inhibitor”. In addition, in the experiment on Mut Cx+GE organoids (Mut Cx+GE organoids (RTT) exposed to 10 μM for 48 hours, Day 100), the “oscillatory activity (extracellular recording)” value is reported as “reveal oscillatory activity at multiple frequencies”. The “sustained oscillatory activity (PSD)” value in the experiment on Mut Cx+GE organoids (Mut Cx+GE organoids exposed to 100 μM for 48 hours, Day 100) was “shows rescue of sustained oscillatory activity”. Moreover, in the experiment on Mut Cx+GE organoids, the “high frequency oscillations (HFOs, about 200-500 Hz)” value is “suppressed HFOs”; the “lower frequency / gamma oscillations (about 40-80 Hz)” value was “re-emergence of gamma oscillations”; the “spiking activity / spike frequency” value is on record as “similarly reduced spike frequency”. The “cell senescence (P21 protein level by immunofluorescence)” value in experiment [1] was “block cell senescence due to increased p53 activity”. Further, the “increased levels of P53 target genes (RT-PCR)” value (shortened to “increased levels”) with Mutant IPSCs is recorded as “abrogated”.

Turning to `CC(=O)/N=c1\sc2c(n1CC(=O)c1ccc(C)cc1)CCCC2` [Pifithrin α-Ac, N-(3-(2-oxo-2-(p-tolyl)ethyl)-4,5,6,7-tetrahydrobenzo[d]thiazol-2(3H)-ylidene)aceta-mide], in the experiment with Mutant IPSCs, the “increased levels” value is “abrogated”.

Take `Cc1ccc(-c2cn3c4c(sc3n2)CCCC4)cc1` [Pifithrin β, 2-(p-tolyl)-5,6,7,8-tetrahydroben-zo[d]imidazo[2,1-b]thiazole]: the “increased levels” value in the experiment with Mutant IPSCs is reported as “abrogated”.

In the case of `CCCC(CCC)C(=O)[O-].[Na+]` [VPA, sodium valproate], in the experiment on Mut Cx+GE organoids, the “high frequency oscillations (HFOs, about 200-500 Hz)” value is “neither decreased HFOs”; the “lower frequency / gamma oscillations (about 40-80 Hz)” value is listed as “nor restored lower frequency oscillations”; the “spiking activity / spike frequency” value is recorded as “significantly reduced spiking activity”.
